{"source": "ChEMBL document CHEMBL4673209", "about": "“Discovery of a novel potent GPR40 full agonist” (Bioorg Med Chem Lett, 2018)", "key": {"[1]": {"biological_target": "T1, Cytochrome P450 2C8 (Homo sapiens, UniProt P10632)", "T1 sequence (P10632 whole entry)": "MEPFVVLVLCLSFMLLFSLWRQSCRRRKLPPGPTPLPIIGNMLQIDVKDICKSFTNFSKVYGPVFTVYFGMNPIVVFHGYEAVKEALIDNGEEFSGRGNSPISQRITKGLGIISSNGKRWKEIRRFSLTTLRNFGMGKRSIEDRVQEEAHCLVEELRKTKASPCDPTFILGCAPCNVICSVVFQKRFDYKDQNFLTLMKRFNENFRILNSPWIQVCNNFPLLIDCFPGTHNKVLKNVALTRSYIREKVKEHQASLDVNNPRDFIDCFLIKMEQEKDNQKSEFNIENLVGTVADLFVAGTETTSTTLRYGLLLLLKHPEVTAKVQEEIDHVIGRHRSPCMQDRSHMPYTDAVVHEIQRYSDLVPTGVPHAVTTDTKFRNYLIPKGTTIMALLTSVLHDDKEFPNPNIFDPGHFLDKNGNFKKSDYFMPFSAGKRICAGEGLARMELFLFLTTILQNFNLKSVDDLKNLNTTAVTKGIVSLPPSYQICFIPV", "assay": "Inhibition of recombinant CYP2C8 (unknown origin)", "format": "ADME"}, "[2]": {"assay": "Oral bioavailability in dog", "format": "ADME, organism-based, Canis lupus familiaris", "details": "in vivo"}, "[3]": {"biological_target": "T2, Cytochrome P450 1A2 (Homo sapiens, UniProt P05177)", "T2 sequence (P05177 whole entry)": "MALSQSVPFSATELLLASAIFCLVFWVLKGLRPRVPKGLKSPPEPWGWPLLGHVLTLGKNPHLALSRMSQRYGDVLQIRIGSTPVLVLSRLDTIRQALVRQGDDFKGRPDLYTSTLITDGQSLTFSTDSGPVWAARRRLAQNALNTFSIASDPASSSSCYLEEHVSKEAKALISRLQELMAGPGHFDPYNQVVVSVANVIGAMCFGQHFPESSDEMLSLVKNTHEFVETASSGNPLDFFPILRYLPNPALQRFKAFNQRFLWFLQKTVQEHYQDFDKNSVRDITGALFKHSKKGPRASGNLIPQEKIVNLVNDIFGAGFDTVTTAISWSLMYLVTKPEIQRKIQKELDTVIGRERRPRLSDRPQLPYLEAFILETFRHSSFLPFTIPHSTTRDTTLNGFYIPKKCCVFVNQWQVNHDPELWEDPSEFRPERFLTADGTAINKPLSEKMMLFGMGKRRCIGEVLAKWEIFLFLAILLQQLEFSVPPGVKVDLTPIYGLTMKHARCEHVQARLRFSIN", "assay": "Inhibition of CYP1A2 (unknown origin)", "format": "ADME"}, "[4]": {"assay": "Volume of distribution at steady state in rat", "format": "ADME", "details": "in vivo, read-out: Vdss"}, "[5]": {"biological_target": "Free fatty acid receptor 1 (Rattus norvegicus) (UniProt Q8K3T4)", "sequence (Q8K3T4 whole entry)": "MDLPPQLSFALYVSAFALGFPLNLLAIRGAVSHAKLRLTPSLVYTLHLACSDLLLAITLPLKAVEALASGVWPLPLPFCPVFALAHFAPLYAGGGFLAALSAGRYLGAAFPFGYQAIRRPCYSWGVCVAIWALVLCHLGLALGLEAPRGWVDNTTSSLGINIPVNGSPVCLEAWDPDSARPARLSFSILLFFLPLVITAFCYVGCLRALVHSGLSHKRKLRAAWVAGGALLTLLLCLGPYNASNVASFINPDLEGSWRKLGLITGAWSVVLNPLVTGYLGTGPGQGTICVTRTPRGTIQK", "assay": "Agonist activity at GPR40 receptor in rat INS1(832/13) cells assessed as induction of IP1 accumulation at 10 uM", "format": "functional, cell-based", "details": "INS-1 832/13, filed as agonist"}, "[6]": {"assay": "Intrinsic clearance in rat assessed as half-life at 1 uM", "format": "ADME"}, "[7]": {"biological_target": "T3, Free fatty acid receptor 1 (Homo sapiens, UniProt O14842)", "T3 sequence (O14842 whole entry)": "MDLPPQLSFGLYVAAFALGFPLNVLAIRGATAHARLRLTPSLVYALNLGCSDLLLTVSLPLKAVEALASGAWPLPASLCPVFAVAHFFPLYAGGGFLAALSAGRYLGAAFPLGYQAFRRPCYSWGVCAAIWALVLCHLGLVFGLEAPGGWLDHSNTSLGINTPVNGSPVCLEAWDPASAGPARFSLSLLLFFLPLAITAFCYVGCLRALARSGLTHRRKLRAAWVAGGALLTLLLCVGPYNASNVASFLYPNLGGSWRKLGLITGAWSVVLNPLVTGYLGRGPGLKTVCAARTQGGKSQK", "assay": "Agonist activity at GPR40 in human islets assessed as induction of glucose-stimulated insulin secretion at 0.3 to 10 uM", "format": "tissue-based", "details": "Pancreatic islet, filed as agonist, dose 0.3-10 µM"}, "[8]": {"assay": "Oral bioavailability in cynomolgus monkey", "format": "ADME, organism-based, Macaca fascicularis", "details": "in vivo"}, "[9]": {"biological_target": "Free fatty acid receptor 1 (Mus musculus, UniProt Q76JU9)", "sequence (Q76JU9 whole entry)": "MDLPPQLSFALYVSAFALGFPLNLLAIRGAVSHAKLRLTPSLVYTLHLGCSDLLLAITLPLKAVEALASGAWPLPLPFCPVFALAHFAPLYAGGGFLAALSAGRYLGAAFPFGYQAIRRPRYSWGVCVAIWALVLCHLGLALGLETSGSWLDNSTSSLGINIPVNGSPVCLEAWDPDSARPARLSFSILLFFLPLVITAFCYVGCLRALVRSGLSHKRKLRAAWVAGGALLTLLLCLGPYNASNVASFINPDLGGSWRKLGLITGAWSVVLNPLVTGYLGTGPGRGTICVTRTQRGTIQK", "assay": "Agonist activity at mouse GPR40 assessed as increase in intracellular calcium level", "format": "functional, cell-based"}, "[10]": {"assay": "Volume of distribution at steady state in dog", "format": "ADME, Canis lupus familiaris", "details": "in vivo, read-out: Vdss"}, "[11]": {"system": "Rattus norvegicus", "assay": "Anti-glycemic activity in fasted Sprague-Dawley ZDF rat assessed as reduction in post-prandial hyperglycemia by measuring AUC(0 to 2 hrs) for blood glucose at 3 mg/kg administered for 1 day and measured on day 1 by OGTT", "format": "functional"}, "[12]": {"biological_target": "Free fatty acid receptor 1 (Rattus norvegicus, UniProt Q8K3T4)", "sequence (Q8K3T4 whole entry)": "as the sequence (Q8K3T4 whole entry) above", "assay": "Agonist activity at GPR40 receptor in rat INS1(832/13) cells assessed as induction of IP1 accumulation", "format": "functional, cell-based, INS-1 832/13"}, "[13]": {"system": "Rattus norvegicus", "assay": "Anti-glycemic activity in fasted Sprague-Dawley ZDF rat assessed as reduction in post-prandial hyperglycemia administered 30 mins prior to glucose challenge and measured for 120 mins by OGTT", "format": "functional", "details": "2.5 h, time 150 min, read-out: MED"}, "[14]": {"biological_target": "T3, Free fatty acid receptor 1", "assay": "Agonist activity at human GPR40 receptor expressed in CHOK1 cells assessed as induction of IP1 accumulation at 10 uM relative to TAK875", "format": "functional, cell-based", "details": "CHO-K1, filed as agonist"}, "[15]": {"assay": "Hepatic clearance in rat", "format": "ADME", "details": "in vivo"}, "[16]": {"system": "Rattus norvegicus", "assay": "Anti-glycemic activity in fasted Sprague-Dawley ZDF rat assessed as reduction in post-prandial hyperglycemia by measuring AUC(0 to 2 hrs) for blood glucose at 10 mg/kg administered for 1 day and measured on day 1 by OGTT", "format": "functional"}, "[17]": {"system": "Mus musculus", "assay": "Induction of GLP-1 secretion in GPR40 knock-out mouse at 100 mg/kg", "format": "functional, organism-based"}, "[18]": {"biological_target": "T4, Free fatty acid receptor 4 (Homo sapiens) (UniProt Q5NUL3)", "T4 sequence (whole entry)": "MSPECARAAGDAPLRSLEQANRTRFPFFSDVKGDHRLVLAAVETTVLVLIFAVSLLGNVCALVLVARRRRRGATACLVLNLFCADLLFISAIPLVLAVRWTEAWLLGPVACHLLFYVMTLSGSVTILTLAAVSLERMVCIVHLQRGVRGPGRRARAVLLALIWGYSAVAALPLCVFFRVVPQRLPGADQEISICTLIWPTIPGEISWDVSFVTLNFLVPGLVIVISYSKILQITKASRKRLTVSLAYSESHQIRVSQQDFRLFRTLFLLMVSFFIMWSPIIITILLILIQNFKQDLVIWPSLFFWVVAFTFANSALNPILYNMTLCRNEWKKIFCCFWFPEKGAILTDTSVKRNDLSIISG", "assay": "Agonist activity at GPR120 (unknown origin)"}, "[19]": {"biological_target": "T3, Free fatty acid receptor 1", "assay": "Agonist activity at human GPR40 receptor expressed in CHOK1 cells assessed as induction of IP1 accumulation", "format": "functional, cell-based, CHO-K1"}, "[20]": {"assay": "Volume of distribution at steady state in cynomolgus monkey", "format": "ADME, Macaca fascicularis", "details": "in vivo, read-out: Vdss"}, "[21]": {"biological_target": "T5, Free fatty acid receptor 3 (Homo sapiens) (UniProt O14843)", "T5 sequence (whole entry)": "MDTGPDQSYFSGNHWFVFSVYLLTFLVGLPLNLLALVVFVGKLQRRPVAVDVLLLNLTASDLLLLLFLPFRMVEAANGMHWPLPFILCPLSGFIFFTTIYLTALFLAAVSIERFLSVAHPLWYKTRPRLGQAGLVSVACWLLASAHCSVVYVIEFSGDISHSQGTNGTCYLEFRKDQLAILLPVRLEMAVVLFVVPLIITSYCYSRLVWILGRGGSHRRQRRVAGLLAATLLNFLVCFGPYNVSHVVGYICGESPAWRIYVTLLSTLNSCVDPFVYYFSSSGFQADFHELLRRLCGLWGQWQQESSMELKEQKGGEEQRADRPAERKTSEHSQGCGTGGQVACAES", "assay": "Agonist activity at GPR41 (unknown origin)"}, "[22]": {"assay": "Intrinsic clearance in human assessed as half-life at 1 uM", "format": "ADME"}, "[23]": {"assay": "Protein binding in rat plasma", "format": "ADME, cell-free", "details": "read-out: PPB (converted)"}, "[24]": {"assay": "Oral bioavailability in rat", "format": "ADME, organism-based", "details": "in vivo"}}, "note": "The source made the active and inactive calls. No cut-off for these calls is given here."}
{"smiles": "COc1cc(-c2ncc(COc3cccc([C@@H](CC(=O)O)C4CC4)c3)nc2CC(C)C)c(F)cn1", "values": [{"measurement": "IC50", "setting": "[1]", "value": 9800, "unit": "nM"}, {"measurement": "bioavailability", "setting": "[2]", "value": 33.6, "unit": "%"}, {"measurement": "IC50", "setting": "[3]", "value": "> 10000", "unit": "nM"}, {"measurement": "Vd", "setting": "[4]", "value": 0.384, "unit": "L/kg"}, {"measurement": "Activity", "setting": "[5]", "value": 1170, "unit": "nM"}, {"measurement": "half-life at 1 µM", "setting": "[6]", "value": 0.8, "unit": "h"}, {"measurement": "Activity", "setting": "[7]", "value": "Active"}, {"measurement": "bioavailability", "setting": "[8]", "value": 99.4, "unit": "%"}, {"measurement": "EC50", "setting": "[9]", "value": 38, "unit": "nM"}, {"measurement": "Vd", "setting": "[10]", "value": 1.62, "unit": "L/kg"}, {"measurement": "Activity", "setting": "[11]", "value": 15896, "unit": "ng/mL.hr"}, {"measurement": "EC50", "setting": "[12]", "value": 862, "unit": "nM"}, {"measurement": "minimal effective dose", "setting": "[13]", "value": 3, "unit": "mg/kg"}, {"measurement": "Activity", "setting": "[14]", "value": 354, "unit": "%"}, {"measurement": "CLH", "setting": "[15]", "value": 26.8, "unit": "mL/min/kg"}, {"measurement": "Activity", "setting": "[16]", "value": 37373, "unit": "ng/mL.hr"}, {"measurement": "Activity", "setting": "[17]", "value": "inactive"}, {"measurement": "Activity", "setting": "[18]", "value": "inactive"}, {"measurement": "EC50", "setting": "[19]", "value": 894, "unit": "nM"}, {"measurement": "Vd", "setting": "[20]", "value": 1.06, "unit": "L/kg"}, {"measurement": "Activity", "setting": "[21]", "value": "inactive"}, {"measurement": "half-life at 1 µM", "setting": "[22]", "value": 1.72, "unit": "h"}, {"measurement": "fraction unbound", "setting": "[23]", "value": 0.0009}, {"measurement": "bioavailability", "setting": "[24]", "value": 123, "unit": "%"}]}
